# Laboratory results published in patent US5906922A, “Delivery of nucleic acids” (Commonwealth Scientific and Industrial Research Organisation, priority 1994, dated 1999).
# Where a SMILES comes first, the peptide text is derived from it. The star is where a group is joined. NHC(CH2OLauroyl)3 = CCCCCCCCCCCC(=O)OCC(COC(=O)CCCCCCCCCCC)(COC(=O)CCCCCCCCCCC)N*
# Experiments:
# Cos 1 cells [1] = format: cell-based, African Green Monkey
# Text: Relative levels of cytotoxicity caused by the different agents were compared during the experiment using the dye "Alamar Blue" (Alamar, Sacramento Calif.).
# (§1) For experiment "c", a plasmid pPGKlaczNLS encoding β-galactosidase under the control of the mouse PGK promoter (kind gift from G.Hannan) or pSVGAL which utilises the SV40 early promoter (Sleigh, M. J. and Lockett, T. J. (1985). EMBO J. 4:3831-3837),was transfected. This experiment and assay were modified from Feigner et al J. Biol Chem. 269(4) 2550-2561 1994. This protocol allows the simultaneous assessment of 72 different combinations and concentrations of DNA and test agent in a microtitre tray. […] Cytotoxicity was assessed using alamar blue, and a sample graph is shown for experiment a.
# (§2) The ratio of [lipid]/[DNA] at which that maximum was achieved is shown. Experiments shown were carried out in Cos 1 cells, as described above. MTS OD is a measure of relative viabilility of the cells exposed to the different agents, a higher value indicates greater cell viability. * These points were taken from a separate experiment and some slight variation between absolute numbers should be expected between experiments.
# (§3) The ratio of [lipid]/[DNA] at which that maximum was achieved is shown in brackets for the two different cell types in the following order; (Cos 1) (CHO). Experiments shown were carried out in Cos 1 cells, as described above. Viability was measured with the dye alamar blue . # Denotes compounds tested in a separate experiment. * Viability in this experiment was determined with MTS. OD is a measure of relative viability of the cells exposed to the different agents, and as with alamar blue, a higher value indicates greater cell viability.
# Cos 1 cells [2] = test: Transfection of pSVLCAT, CAT assay, Cos 1; format: cell-based, African Green Monkey
# Description: To test the transfection properties of the lead compound K3ATP3 (VerafectinA3), whole uncut plasmid carrying the gene encoding CAT (chloramphenicol acetyl transferase) under the control of the SV40 late promoter, pSVLCAT (Cameron, F. H. and Jennings, P. A. (1989) PNAS 86, 9139-9143) was mixed with the test agent and put on Cos 1 cells under various conditions. After 48 hours of culture the level of secreted CAT was assayed from the culture medium.
# Solution I: 1 μg Plasmid DNA in 500 μl Dulbeccos Modified Eagles Medium (DME)
# Solution II: 0-20 μl VerafectinA3 (2.5 mg/ml 25% DMSO) in 500 μl DME, Vortex
# Combine solution I and II, vortex briefly and incubate at room temperature for 10 min.
# Add mix to washed cells in 60 mm tissue culture dishes (seeded 0.5×10^6 /dish previous day) for 6 hrs at 37° C., 5% C02. Add 2 ml DME+10% FCS for remainder of 48 hrs. Assay CAT levels in tissue culture medium (Sleigh, M. J. (1986) Anal. Biochem. 156.251-256).
# a--Compare VerafectinA3 dissolved in DMSO or ethanol.
# b--Compare VerafectinA3 on cells 6 hrs to overnight. VerafectinA3 at 10 mg/ml in 100% solvent was diluted to 2.5 mg/ml with water.
# Transfection was carried out as for experiment 1. VerafectinA3 was left in contact with the cells for varying times.
# Protocol was the same for the Verafectins as described above. Lipofectamine protocol was according to manufacturers instructions. Cos 1 cells were seeded at 5×10^5 /60 mm dish and adhered overnight in DME with 10% FCS.
# Solution A: 0.5 μg pSVLCAT/60 mm dish.
# Solution B: Lipofectamine 10 and 15 μl 2 mg/ml (mixed formulation 3:1 with DOPE).
# OR; VerafectinA3 and VerafectinG2 20 μl 2 mM (2.8 and 2.3 mg/ml respectively) stock.
# OR; VerafectinG2 was also tested with an equimolar amount of DOPE. VerafectinG2 and DOPE were mixed in DDME and vortexed for 30 seconds before use. Solutions A and B were combined before overlaying on washed cells.
# The serum free incubation period in the presence of test agents and DNA was 6 hrs, then 1 ml DME+10% FCS was added. At 24 hours medium was changed to 2 ml fresh DME+10% FCS until harvest at 48 hrs.
# Cell lines Cos 1 or CHO were transfected with 0.5 μg of pSVLCAT or 2 μg of pPGKlacZ plasmid using a range of concentrations of each transfection compound. The optimal concentration of compound, that is the concentration giving the highest level of CAT at 48 hours or the greatest percentage of lac z (β-galactosidase) staining cells at 24 hours was used to collate data for Table 1. As all compounds were not tested in a single experiment, absolute figures indicating transfection were not used. Rather, symbols are used to indicate the transfection efficiency relative to Lipofectamine (BRL), which was included as a control in all experiments. Table 1 thus indicates the relative efficiencies of a number of compounds in mediating the transfection of at least one cell type.
# All test lipopeptide reagents were originally dissolved at 10 mM in 75% DMSO, and subsequently diluted with water to make a 2 mM stock stored at 4° C. Volumes of 2 mM stock lipopeptide ranging from 2 μl to 15 μl were diluted in 500 μl of DDME. 1 μg of plasmid pSVLCAT was separately diluted in 500 μl of DDME. Solutions were combined for 10-20 min at room temperature before adding to 500 μl of DDME in 60 mm dishes of subconfluent CHO cells (2×10^5 day-1) or Cos 1 cells (5×10^5 day-1); washed free of serum with DDME.
# Cells were incubated for 6 hrs under standard conditions of 37° C. and 5% CO2 for 6 hours. 1.5 ml of DME/Hams+10% FCS (CHO) or DME+10% FCS (Cos 1) was added to the cells for overnight incubation. Fresh DME/Hams+10% FCS or DME+10% FCS was used to replace the medium for a further 24 hours prior to harvest. Cell lysates were prepared and assayed for CAT activity as described above. For Cos 1 cells, culture supernatants were assayed for CAT activity.
# For transfection of pSVLCAT and subsequent assay of CAT enzyme, experiments "a" and "b" were carried out as described above.
# Cos 1 cells [3] = test: β-gal microtitre plate transfection assay, Cos 1; format: cell-based, African Green Monkey; details: for relative transfection level (A linker compound as reference): "y" linker experiment c, Cos 1, trilysine trilaurate
# Text: as §1
# Compounds were tested for their ability to transfect either the CAT or β-gal gene carried on plasmids, and assayed as described above.
# as §2
# Each of these compounds was tested for transfection ability and cytotoxicity on standard cell lines using standard conditions as described above.
# as §3
# Cos 1 cells [4] = format: cell-based, African Green Monkey; remark: listed apart in the source
# Description: Relative levels of cytotoxicity were also assayed in subsequent experiments using the dye MTS, marketed as Cell titre 96 Aqueous (Promega).
# as §2, §3
# cells = test: β-gal reporter transfection, "y" linker non-standard amino acids; format: cell-based; details: K3 "y" TL3 compounds
# Description: Peptide/fatty acyl conjugates were synthesized using the non-standard amino acids amino butyric (C3), amino caproic (C5) and amino caprylic (C7) acids as the linker groups, a tri-lysine nucleic acid binding domain and laurate for the three fatty acyl groups. In these new conjugates the DNA binding and tris/fatty acyl moieties were separated by an extra 3, 5 and 7 carbon bond lengths respectively when compared with the prototype molecule. These compounds were then tested in the standard manner described above to determine their relative capacity to transfect cells.
# K3 "y" TL3 compounds, where y=C3, C5, C7, A, L, G were compared for transfection efficiency to each other and the commercial agent Lipofectamine using the standard β-gal reporter gene system described above.
# Cos 1 cells [5] = test: Cellular uptake and distribution of fluorescein conjugates (confocal microscopy); format: cell-based, African Green Monkey; details: for cell staining after treatment: cells fixed fifteen minutes after treatment; for persistence of staining: conjugate washed off after 2 hours, cells grown 24 hours; for distribution in live, unfixed cells: 40× objective
# Description: In order to assess the ability to deliver compounds into cells, preliminary experiments were conducted with fluorescein alanine ethanolamine palmitate (FLAEP) and fluorescein alanine tris tripalmitate (FLATP3).
# After the incubation period as specified in the experiment, up to 24 hours exposure, the cells were washed and fixed in formaldehyde for 20 minutes. Cells were then observed under laser excitation in a Bio Rad MRC 500 confocal microscope.
compound,measurement,setting,value
CCCCCCCCCCCCCCCC(=O)OCC(CO)(COC(=O)CCCCCCCCCCCCCCC)NC(=O)[C@H](Cc1ccccc1)NC(=O)[C@H](CCCCN)NC(=O)[C@@H](N)CCCCN [K2FTP2],"toxicity, linkers K, F and L compared",Cos 1 cells [1],somewhat higher than for the K compound
CCCCCCCCCCCCCCCC(=O)OCC(COC(=O)CCCCCCCCCCCCCCC)(COC(=O)CCCCCCCCCCCCCCC)NC(=O)[C@H](CCCCN)NC(=O)[C@H](CCCCN)NC(=O)[C@@H](N)CCCCN [K2KTP3],"cytotoxicity, dipalmitate versus tripalmitate",Cos 1 cells [1],increase in cytotoxicity
CCCCCCCCCCCCCCCC(=O)OCC(CO)(COC(=O)CCCCCCCCCCCCCCC)NC(=O)[C@H](CC(C)C)NC(=O)[C@H](CCCCN)NC(=O)[C@@H](N)CCCCN [K2LTP2],"toxicity, linkers K, F and L compared",Cos 1 cells [1],somewhat higher than for the K compound
same,"transfection, linkers K, F and L compared","Cos 1 cells [2]; ""y"" linker experiment a, Cos 1, dilysine dipalmitate","marginally superior results to F, but was substantially more effective than the K compound"
same,"transfection, linkers A and L compared","Cos 1 cells [2]; ""y"" linker experiment b, Cos 1",very similar activities
CCCCCCCCCCCCCC(=O)OCC(COC(=O)CCCCCCCCCCCCC)(COC(=O)CCCCCCCCCCCCC)NC(=O)[C@H](C)NC(=O)[C@H](CCCCN)NC(=O)[C@H](CCCCN)NC(=O)[C@@H](N)CCCCN [K3ATM3],ratio [lipid]/[DNA] at which maximum was achieved,"Cos 1 cells [3]; Table 2, Cos 1",1.39
same,units β-gal,"Cos 1 cells [3]; Table 2, Cos 1, highest reading of 72 conditions",2.86 × 10^-4 units
same,ratio [lipid]/[DNA] at which maximum was achieved,"Cos 1 cells [3]; Table 3, Cos 1",1.39
same,β-gal (Cos 1),"Cos 1 cells [3]; Table 3, Cos 1, # tested in a separate experiment",2.86 × 10^-4
same,MTS OD490-655,Cos 1 cells [4],1.22
same,Viability (Cos 1),Cos 1 cells [4],1.22
CCCCCCCCCCCC(=O)OCC(COC(=O)CCCCCCCCCCC)(COC(=O)CCCCCCCCCCC)NC(=O)CCCNC(=O)[C@H](CCCCN)NC(=O)[C@H](CCCCN)NC(=O)[C@@H](N)CCCCN [K3C3TL3],transfection efficiency compared to Lipofectamine,cells,more efficient at transfection than Lipofectamine
same,transfection efficiency compared to standard single amino acid linker,cells,dramatically more efficient than compounds using the standard single amino acid linker
CCCCCCCCCCCC(=O)OCC(COC(=O)CCCCCCCCCCC)(COC(=O)CCCCCCCCCCC)NC(=O)CCCCCNC(=O)[C@H](CCCCN)NC(=O)[C@H](CCCCN)NC(=O)[C@@H](N)CCCCN [K3C5TL3],transfection efficiency compared to Lipofectamine,cells,more efficient at transfection than Lipofectamine
same,transfection efficiency compared to standard single amino acid linker,cells,dramatically more efficient than compounds using the standard single amino acid linker
CCCCCCCCCCCC(=O)OCC(COC(=O)CCCCCCCCCCC)(COC(=O)CCCCCCCCCCC)NC(=O)CNC(=O)[C@H](CCCCN)NC(=O)[C@H](CCCCN)NC(=O)[C@@H](N)CCCCN [K3GTL3] (H-KKKG-{NHC(CH2OLauroyl)3}),transfection efficiency compared to Lipofectamine,cells,All of the compounds except K3GTL3 were found to be more efficient at transfection than Lipofectamine
same,relative transfection level (A linker compound as reference),Cos 1 cells [3],12%
CCCCCCCCCCCC(=O)OCC(COC(=O)CCCCCCCCCCC)(COC(=O)CCCCCCCCCCC)NC(=O)[C@H](CC(C)C)NC(=O)[C@H](CCCCN)NC(=O)[C@H](CCCCN)NC(=O)[C@@H](N)CCCCN [K3LTL3] (H-KKKL-{NHC(CH2OLauroyl)3}),transfection efficiency compared to Lipofectamine,cells,more efficient at transfection than Lipofectamine
same,relative transfection level (A linker compound as reference),Cos 1 cells [3],57%
"O=C1OC2(c3ccc(O)cc3Oc3cc(O)ccc32)c2ccccc21 [fluorescein, reference compound]",cell staining after treatment,Cos 1 cells [5]; 10 μM,only a very weak generalised fluorescence over the whole cell
fluorescein alanine Tris tripalmitate [FLATP3],cell staining after treatment,Cos 1 cells [5]; 10 μM,intense cytoplasmic staining
same,localisation of conjugate,"Cos 1 cells [5]; 10 μM, fixed cells",appeared to associate preferentially with the cellular and nuclear membranes
same,persistence of staining,Cos 1 cells [5],a pattern that persisted in cells allowed to grow for 24 hours
same,"distribution in live, unfixed cells",Cos 1 cells [5],exhibited a similar pattern whether the cells were live or fixed
fluorescein alanine ethanolamine palmitate [FLAEP],cell staining after treatment,Cos 1 cells [5]; 10 μM,intense cytoplasmic staining
same,persistence of staining,Cos 1 cells [5],This same persistence of staining was not observed
same,"distribution in live, unfixed cells",Cos 1 cells [5],"appeared to enter the cell readily, but was concentrated particularly in the nucleus"
